Like-named read-outs stand apart in the source and are kept apart here.
What was measured:
[1] = molecular target: T1, Keap1-Nrf2 (Homo sapiens, UniProt Q14145); test: Keap1-Nrf2 Binding Inhibitory Activity Assay (fluorescence polarization, Keap1_FL + FITC-Nrf2 peptide); details: Keap1-FL, 60 min room temperature
T1 construct: purchased Sino Biological 11981-H20B
Method: Example 2.1 Keap1-Nrf2 Binding Inhibitory Activity Assay
• PerkinElmer EnVision 2105 Multilabel Reader • PerkinElmer FITC FP dual emission Label 2100-8060 • LABCYTE Echo 650 • Corning 384-well microplate #4514 • Keap1_FL, Sino Biological, catalog 11981-H20B • FITC-Nrf2 peptide, GL Biochem, Lot No: p210427-XQ892761
• a) Reference titration • 1. Keap1-Nrf2 Assay Buffer was prepared: 10 mM Tris-HCl pH 7.4, 150 mM NaCl, 50 mM EDTA, 0.05% Tween20, 0.1 mg/ml BSA (freshly add before use). • 2. 2.04× Tracer working solution was prepared: 2.04 nM FITC-Nrf2 peptide in Assay Buffer from 1 μM DMSO stock. • 3. 2× Protein working solution was prepared: 25 nM Keap1-FL in Assay Buffer. • 4. 100× compound working solutions with DMSO were prepared. Starting from 100 μM, serial 3-fold dilutions (10 points) were made by the Echo on the 384-well LDV microplate, then 200 nL of compounds, in duplicated wells, were transferred to a Corning 4514 plate. • 5. 9.8 μL per well of the Tracer working solution was added into the Corning 4514 plate. • 6. 10 μL per well of the Protein working solution was added into the Corning 4514 plate, except for the first two columns where Dilution Buffer were added to serve as “positive control”. • 7. The plate was incubated at room temperature for 60 min. • b) Read data on an EnVision with the following setting: Excitation Light (%): 84; Measurement Height: 9.4; G-Factor: 1; Detector Gain 1:220; Detector Gain 2: 220; Flash Number: 50.
All the Test Compounds were considered as having Keap1-Nrf2 binding inhibitory activity.

[2] = test system: Nrf2; test: Nrf2 Cellular Assay (pGL4.37[luc2P/ARE/Hygro] luciferase reporter in HepG2 cells); assay type: cell-based; details: Homo sapiens, HepG2, 6 h, ARE luciferase, 6 hours compound treatment
Method: Example 2.2 Nrf2 Cellular Assay
• 1. pGL4.37[luc2P/ARE/Hygro] vector was diluted to 25 ng/μL in Opti-MEM. • 2. Lipofectamine 3000 was added to a 2:1 lipid:DNA. The mixture was mixed by pipetting and incubate at room temperature for 15 minutes. • 3. HepG2 cells were cultured in complete medium (DMEM+10% FBS). • 4. Trypsin was added to the cells, which were filtered via a cell strainer to remove cell cluster, the cells were then quantified and diluted to 2×10^5 cells/ml in complete medium. • 5. The cells and plasmid were mixed, seeded to 384-well plate 50 μL per well (50 ng DNA/well) and incubated for 24 hours in a 37° C., 5% CO2 incubator.
• 1. Medium was removed from cells and replaced with 36 μL of DMEM+10% FBS per well. • 2. Incubated overnight in a 37° C., 5% CO2 incubator.
• 1. Test compound was serially diluted tin DMSO, and further diluted with DMEM (contains 10% FBS) to 10× final concentration. • 2. 4 μL of the 10× compound was added to each well, the plate was shaken for 10 sec on a plate shaker and incubated for 6 hours in a 37° C., 5% CO2 incubator.
• 1. Plates were removed from the 37° C., 5% CO2 incubator and allowed to cool to room temperature for approximately 15 minutes. • 2. 40 μL of the Glo Luciferase Assay System detection reagents were added, and the plate was shaken for 3 min and luminescence was measured.

IC50 [1]	EC50 [2]	SMILES	other results
≤ 100 nM	≤ 10 µM	Cc1c2ccc3c1nnn3CCCOCC1CCN(CC1)C(=O)N1CCc3ccc(cc3C1)C2CC(=O)O (stereo not shown) [Compound 12, 2-(1^4-methyl-4-oxo-3^1,3^2,3^3,3^4-tetrahydro-1^1H-7-oxa-3(7,2)-isoquinolina-1(5,1)-benzo[d][1,2,3]triazola-5(1,4)-piperidinacyclodecaphane-2-yl)acetic acid]	–
≤ 100 nM	≤ 10 µM	Cc1c2ccc3c1nnn3CCCCCC1CCN(CC1)C(=O)N1CCc3ccc(cc3C1)C2CC(=O)O (stereo not shown) [Compound 14, 2-(1^4-methyl-4-oxo-3^1,3^2,3^3,3^4-tetrahydro-1^1H-3(7,2)-isoquinolina-1(5,1)-benzo[d][1,2,3]triazola-5(1,4)-piperidinacyclodecaphane-2-yl)acetic acid]	–
≤ 100 nM	≤ 10 µM	O=C(O)CC1c2ccc3c(c2)CN(CC3)C(=O)N2CCC(CCCCCn3nnc4c(Cl)c1ccc43)CC2 (stereo not shown) [Compound 30, 2-(1^4-chloro-4-oxo-3^1,3^2,3^3,3^4-tetrahydro-1^1H-3(7,2)-isoquinolina-1(5,1)-benzo[d][1,2,3]triazola-5(1,4)-piperidinacyclodecaphane-2-yl)acetic acid]	–
≤ 100 nM	≤ 10 µM	Cc1c2ccc3c1nnn3CCCCC1CCC(CC1)C(=O)N1CCc3ccc(cc3C1)C2CC(=O)O (stereo not shown) [Compound 34]	–
≤ 100 nM	≤ 10 µM	Cc1c2ccc3c1nnn3CCCCCC1CCC(CC1)C(=O)N1CCc3ccc(cc3C1)C2CC(=O)O (stereo not shown) [Compound 35]	–
100 to 1000 nM	≤ 10 µM	Cc1c2ccc3c1nnn3CCCCCC1CCC(CC1)C(=O)N(C)Cc1cccc(c1)C2CC(=O)O (stereo not shown) [Compound 37]	–
≤ 100 nM	10 to 30 µM	Cc1c2ccc3c1nnn3CCCCCCCCN(C)C(=O)N1CCc3ccc(cc3C1)C2CC(=O)O (stereo not shown) [Compound 40]	–
≤ 100 nM	≤ 10 µM	O=C(O)CC1c2ccc3c(c2)CN(CC3)C(=O)C2CCC(CCCCCn3nnc4cc1cnc43)CC2 (stereo not shown) [Compound 55, 2-(4-oxo-31,32,33,34-tetrahydro-13H-3(7,2)-isoquinolina-1(6,3)-[1,2,3]triazolo[4,5-b]pyridina-5(1,4)-cyclohexanacyclodecaphane-2-yl)acetic acid]	–
≤ 100 nM	10 to 30 µM	O=C(O)CC1c2ccc3c(c2)CN(CC3)C(=O)C2CCC(CCCCn3nnc4cc1cnc43)CC2 (stereo not shown) [Compound 56, 2-(4-oxo-31,32,33,34-tetrahydro-13H-3(7,2)-isoquinolina-1(6,3)-[1,2,3]triazolo[4,5-b]pyridina-5(1,4)-cyclohexanacyclononaphane-2-yl)acetic acid]	–

The next lines start with the compound.

SMILES	IC50 [1]	EC50 [2]	other results
CCOC(=O)CC1c2cc(C)c3c(c2)CN(CC3)C(=O)c2ccc(cc2)COCCCn2nnc3c(C)c1ccc32 (stereo not shown)	–	–	ring closure, isolated yield (from CCOC(=O)CC(c1cc(C)c2c(c1)CNCC2)c1ccc2c(nnn2CCCOCc2ccc(C(=O)O)cc2)c1C, amide bond, 21-membered ring, HATU/DIEA, DMF, 131.5 mM, 20.0 °C, 2.0 h): 77.9%
CCOC(=O)CC1c2ccc3c(c2)CN(CC3)C(=O)C2CCN(CCCCCn3nnc4c(C)c1ccc43)CC2 (stereo not shown)	–	–	ring closure, isolated yield (from CCOC(=O)CC(c1ccc2c(c1)CNCC2)c1ccc2c(nnn2CCCCCN2CCC(C(=O)O)CC2)c1C, amide bond, 21-membered ring, HATU/DIEA, DMF, 96.0 mM, 0.0 °C): 79.5%
CCOC(=O)CC1c2ccc3c(c2)CN(CC3)C(=O)C2CCN(CCOCCn3nnc4c(C)c1ccc43)CC2 (stereo not shown)	–	–	ring closure, isolated yield (from CCOC(=O)CC(c1ccc2c(c1)CNCC2)c1ccc2c(nnn2CCOCCN2CCC(C(=O)O)CC2)c1C, amide bond, 21-membered ring, HATU/DIEA, DMF, 142.0 mM, 25.0 °C): 38.2%
CCOC(=O)CC1c2ccc3c(c2)CN(CC3)S(=O)(=O)c2ccc(cc2)OCC=CCn2nnc3c(C)c1ccc32 (stereo not shown)	–	–	ring closure, isolated yield (from C=CCOc1ccc(S(=O)(=O)N2CCc3ccc(C(CC(=O)OCC)c4ccc5c(nnn5C/C=C/C)c4C)cc3C2)cc1, rcm bond, 21-membered ring, Grubbs II, DCM, 40.0 mM, 25.0 °C, 19.0 h): 12.9%
CCOC(=O)CC1c2ccc3c(c2)CN(CC3)S(=O)(=O)c2ccc(cc2)OCCOCCn2nnc3c(C)c1ccc32 (stereo not shown)	–	–	ring closure, isolated yield (from CCOC(=O)CC(c1ccc2c(c1)CN(S(=O)(=O)c1ccc(O)cc1)CC2)c1ccc2c(nnn2CCOCCO)c1C, ether bond, 22-membered ring, DEAD/PPh3, DCM/THF, 28.8 mM, 20.0 °C, 4.0 h): 73.6%
O=C(CC1c2ccc3c(c2)CN(CC3)C(=O)N2CCC(C=CCCCn3nnc4c(Cl)c1ccc43)CC2)OCc1ccccc1 (stereo not shown)	–	–	ring closure, isolated yield (from C=CCCCn1nnc2c(Cl)c(C(CC(=O)OCc3ccccc3)c3ccc4c(c3)CN(C(=O)N3CCC(C=C)CC3)CC4)ccc21, rcm bond, 21-membered ring, Grubbs II, DCM, 53.3 mM, 19.0 h): 13.3%
Cc1c2ccc3c1nnn3CCCCCN1CCC(CC1)C(=O)N1CCc3ccc(cc3C1)C2CC(=O)O (stereo not shown) [Compound 2, 2-(carboxymethyl)-1^4-methyl-4-oxo-3^1,3^2,3^3,3^4-tetrahydro-1^1H-3(7,2)-isoquinolina-1(5,1)-benzo[d][1,2,3]triazola-5(4,1)-piperidin-1-iumacyclodecaphan-5^1-ium chloride]	1000 to 10000 nM	> 30 µM	–
Cc1c2ccc3c1nnn3CCOCCN1CCC(CC1)C(=O)N1CCc3ccc(cc3C1)C2CC(=O)O (stereo not shown) [Compound 3, 2-(carboxymethyl)-1^4-methyl-4-oxo-3^1,3^2,3^3,3^4-tetrahydro-1^1H-8-oxa-3(7,2)-isoquinolina-1(5,1)-benzo[d][1,2,3]triazola-5(4,1)-piperidin-1-iumacyclodecaphan-5^1-ium chloride]	1000 to 10000 nM	> 30 µM	–
Cc1cc2cc3c1CCN(C3)C(=O)c1ccc(cc1)COCCCn1nnc3c(C)c(ccc31)C2CC(=O)O (stereo not shown) [Compound 4, 2-(1^4,3^5-dimethyl-4-oxo-3^1,3^2,3^3,3^4-tetrahydro-1^1H-7-oxa-3(7,2)-isoquinolina-1(5,1)-benzo[d][1,2,3]triazola-5(1,4)-benzenacyclodecaphane-2-yl)acetic acid]	≤ 100 nM	≤ 10 µM	–
Cc1c2ccc3c1nnn3CCCCCN1CCN(CC1)C(=O)N1CCc3ccc(cc3C1)C2CC(=O)O (stereo not shown) [Compound 5, 2-(carboxymethyl)-1^4-methyl-4-oxo-3^1,3^2,3^3,3^4-tetrahydro-1^1H-3(7,2)-isoquinolina-1(5,1)-benzo[d][1,2,3]triazola-5(4,1)-piperazin-1-iumacyclodecaphan-5^1-ium chloride]	100 to 1000 nM	> 30 µM	–
Cc1c2ccc3c1nnn3CCCOCc1ccc(cc1)C(=O)N(C)Cc1cccc(c1)C2CC(=O)O (stereo not shown) [Compound 7, 2-(1^4,5-dimethyl-6-oxo-1^1H-9-oxa-5-aza-1(5,1)-benzo[d][1,2,3]triazola-3(1,3), 7(1,4)-dibenzenacyclododecaphane-2-yl)acetic acid]	≤ 100 nM	10 to 30 µM	–
Cc1c2ccc3c1nnn3CCOCCN1CCN(CC1)C(=O)c1ccc3ccc(cc3c1)C2CC(=O)O (stereo not shown) [Compound 8, 2-(1^4-methyl-4-oxo-1^1H-8-oxa-1(5,1)-benzo[d][1,2,3]triazola-5(1,4)-piperazina-3(2,7)-naphthalenacyclodecaphane-2-yl)acetic acid]	1000 to 10000 nM	> 30 µM	–
Cc1c2ccc3c1nnn3CCCCOC1CCN(CC1)C(=O)N1CCc3ccc(cc3C1)C2CC(=O)O (stereo not shown) [Compound 10, 2-(1^4-methyl-4-oxo-3^1,3^2,3^3,3^4-tetrahydro-1^1H-6-oxa-3(7,2)-isoquinolina-1(5,1)-benzo[d][1,2,3]triazola-5(1,4)-piperidinacyclodecaphane-2-yl)acetic acid]	≤ 100 nM	≤ 10 µM	–
Cc1c2ccc3c1nnn3C/C=C\COC1CCN(CC1)C(=O)N1CCc3ccc(cc3C1)C2CC(=O)O (stereo not shown) [Compound 11, (Z)-2-(1^4-methyl-4-oxo-3^1,3^2,3^3,3^4-tetrahydro-1^1H-6-oxa-3(7,2)-isoquinolina-1(5,1)-benzo[d][1,2,3]triazola-5(1,4)-piperidinacyclodecaphan-8-en-2-yl)acetic acid]	≤ 100 nM	≤ 10 µM	–
